The values below come from ChEMBL document CHEMBL1240516, “Studies on ligand binding to histidine triad nucleotide binding protein 1” (Bioorg Med Chem, 2010).

Test [1] addresses T1, Adenosine 5'-monophosphoramidase HINT1 (Mus musculus, UniProt P70349).
T1 sequence (P70349 whole entry): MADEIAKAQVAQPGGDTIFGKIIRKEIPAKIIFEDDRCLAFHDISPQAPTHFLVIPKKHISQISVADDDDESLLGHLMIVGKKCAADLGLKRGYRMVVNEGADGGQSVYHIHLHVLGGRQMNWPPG
Briefly: Binding affinity to mouse HINT1 by fluorescence quenching assay.

The target in test [2] is T1, Adenosine 5'-monophosphoramidase HINT1. The experiment in a line: Binding affinity to mouse HINT1 by NMR analysis.
The target is the same in test [3]. The experiment in a line: Binding affinity to mouse HINT1 by HSQC spectra assay.

Turning to `Nc1nc2c(ncn2[C@@H]2O[C@H](COP(=O)(O)O)[C@H](O)[C@@H]2O)c(=O)[nH]1` [E626], the Kd in test [1] stood at 67 µM; in test [2] it was 60 µM.
For `NC(=O)c1ncn([C@@H]2O[C@H](COP(=O)(O)O)[C@@H](O)[C@H]2O)c1N`, the values for the Kd in test [1] and in test [3] were 1100 µM and 1.2 mM, respectively.

As usually defined, the Kd is the equilibrium constant for the complex coming apart.
